Assay results taken from PubChem BioAssay (NCI).
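96-well plates; 48 h exposure; 5 concentrations. Endpoints by linear interpolation between flanking doses. Not reached: highest tested concentration assigned. TGI is the concentration that stops growth completely.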

Key:
Test in all cases: NCI tumour cell line growth inhibition, 48 h
HS 578T breast = test system: HS 578T breast
HL-60(TB) leukemia = test system: HL-60(TB) leukemia
UACC-62 melanoma = test system: UACC-62 melanoma
HT29 colon = test system: HT29 colon
SN12C renal = test system: SN12C renal
SK-MEL-2 melanoma = test system: SK-MEL-2 melanoma
UACC-257 melanoma = test system: UACC-257 melanoma
BT-549 breast = test system: BT-549 breast
RXF 393 renal = test system: RXF 393 renal
SNB-19 CNS = test system: SNB-19 CNS
U251 CNS = test system: U251 CNS
A549 NSCLC = test system: A549 NSCLC
MDA-MB-231 breast = test system: MDA-MB-231 breast
SK-MEL-28 melanoma = test system: SK-MEL-28 melanoma
A498 renal = test system: A498 renal
HOP-62 NSCLC = test system: HOP-62 NSCLC
ACHN renal = test system: ACHN renal
MCF7 breast = test system: MCF7 breast
COLO 205 colon = test system: COLO 205 colon
NCI/ADR-RES ovarian = test system: NCI/ADR-RES ovarian
SF-539 CNS = test system: SF-539 CNS
SW-620 colon = test system: SW-620 colon
NCI-H522 lung = test system: NCI-H522 lung
SK-MEL-5 melanoma = test system: SK-MEL-5 melanoma
NCI-H226 lung = test system: NCI-H226 lung
K-562 leukemia = test system: K-562 leukemia
MDA-MB-435 = test system: MDA-MB-435
M14 melanoma = test system: M14 melanoma
OVCAR-3 ovarian = test system: OVCAR-3 ovarian
SR leukemia = test system: SR leukemia
NCI-H23 lung = test system: NCI-H23 lung
NCI-H460 lung = test system: NCI-H460 lung
HCT-116 colon = test system: HCT-116 colon
MDA-N = test system: MDA-N
CCRF-CEM leukemia = test system: CCRF-CEM leukemia
HOP-92 NSCLC = test system: HOP-92 NSCLC
SNB-75 CNS = test system: SNB-75 CNS
DU-145 prostate = test system: DU-145 prostate
SK-OV-3 ovarian = test system: SK-OV-3 ovarian
SF-268 CNS = test system: SF-268 CNS
SF-295 CNS = test system: SF-295 CNS
UO-31 renal = test system: UO-31 renal
MALME-3M melanoma = test system: MALME-3M melanoma
IGROV1 ovarian = test system: IGROV1 ovarian
786-0 renal = test system: 786-0 renal
OVCAR-5 ovarian = test system: OVCAR-5 ovarian
OVCAR-8 ovarian = test system: OVCAR-8 ovarian
OVCAR-4 ovarian = test system: OVCAR-4 ovarian
PC-3 prostate = test system: PC-3 prostate
TK-10 renal = test system: TK-10 renal
LOX IMVI melanoma = test system: LOX IMVI melanoma
HCC-2998 colon = test system: HCC-2998 colon
HCT-15 colon = test system: HCT-15 colon

Cc1cc(Cl)nc(Nc2nc3ccccc3[nH]2)n1
TGI (HS 578T breast): > 100 µM | TGI (HL-60(TB) leukemia): > 100 µM | TGI (UACC-62 melanoma): > 100 µM | TGI (HT29 colon): > 100 µM | TGI (SN12C renal): > 100 µM | TGI (SK-MEL-2 melanoma): > 100 µM | TGI (UACC-257 melanoma): > 100 µM | TGI (BT-549 breast): > 100 µM | TGI (RXF 393 renal): > 100 µM | TGI (SNB-19 CNS): > 100 µM | TGI (U251 CNS): > 100 µM | TGI (A549 NSCLC): > 100 µM | TGI (MDA-MB-231 breast): > 100 µM | TGI (SK-MEL-28 melanoma): > 100 µM | TGI (A498 renal): > 100 µM | TGI (HOP-62 NSCLC): > 100 µM | TGI (ACHN renal): > 100 µM | TGI (MCF7 breast): > 100 µM | TGI (COLO 205 colon): > 100 µM | TGI (NCI/ADR-RES ovarian): > 100 µM | TGI (SF-539 CNS): > 100 µM | TGI (SW-620 colon): > 100 µM | TGI (NCI-H522 lung): 5.96 µM | TGI (SK-MEL-5 melanoma): > 100 µM | TGI (NCI-H226 lung): > 100 µM | TGI (K-562 leukemia): > 100 µM | TGI (MDA-MB-435): > 100 µM | TGI (M14 melanoma): > 100 µM | TGI (OVCAR-3 ovarian): > 100 µM | TGI (SR leukemia): > 100 µM | TGI (NCI-H23 lung): > 100 µM | TGI (NCI-H460 lung): > 100 µM | TGI (HCT-116 colon): > 100 µM | TGI (MDA-N): > 100 µM | TGI (CCRF-CEM leukemia): > 100 µM | TGI (HOP-92 NSCLC): > 100 µM | TGI (SNB-75 CNS): > 100 µM | TGI (DU-145 prostate): > 100 µM | TGI (SK-OV-3 ovarian): > 100 µM | TGI (SF-268 CNS): > 100 µM | TGI (SF-295 CNS): > 100 µM | TGI (UO-31 renal): > 100 µM | TGI (MALME-3M melanoma): > 100 µM | TGI (IGROV1 ovarian): > 100 µM | TGI (786-0 renal): > 100 µM | TGI (OVCAR-5 ovarian): > 100 µM | TGI (OVCAR-8 ovarian): > 100 µM | TGI (OVCAR-4 ovarian): > 100 µM | TGI (PC-3 prostate): > 100 µM | TGI (TK-10 renal): > 100 µM | TGI (LOX IMVI melanoma): > 100 µM | TGI (HCC-2998 colon): > 100 µM | TGI (HCT-15 colon): > 100 µM
